In patent US20220306659A1, “COMPOUND INHIBITING AND INDUCING DEGRADATION OF EGFR AND ALK” (BEIJING TIDE PHARMACEUTICAL CO., LTD., priority 2019, published 2022):
One block for each molecule: values may come before it.

Tests used:
[1] = target: EGFR^L858R/T790M/C797S (Homo sapiens, UniProt P00533, C797S/L858R/T790M); test: EGFR inhibitory activity assay (TK-substrate-biotin/ATP, 665/615 ratio); type: biochemical; settings: kinase inhibition
Protocol: EGFR Inhibitory Activity Assay
(1) A compound stock solution was prepared and diluted 3× to obtain a compound dilution; 10 nL of the compound dilution was transferred to a 384-well plate (784075, Greiner) by Echo 550;
(2) The plate was sealed, and centrifuged at 1,000 g for 1 min;
(4) 5 μl of the 2×EGFR protein working solution was added to the 384-well plate from step (2), centrifuged at 1,000 g for 30 s, and allowed to stand at room temperature (mixed thoroughly) for 10 min;
(6) 5 µL of the TK-substrate-biotin and ATP (the mixture prepared in step (5)) was added to the 384-well plate from step (4) to initiate the reaction;
(7) The mixture was centrifuged at 1,000 g for 30 s; the plate was sealed, and allowed to stand (and reacted) at room temperature for 40 min;
(8) 4×Sa-XL 665 and TK-antibody-Cryptate were prepared with detection buffer;
(9) 5 µL of the Sa-XL 665 and 5 µL of the TK-antibody-Cryptate were added successively to the 384-well plate from step (7);
(10) The mixture was centrifuged at 1,000 g for 30 s, and allowed to stand (reacted) at room temperature for 1 h;
(11) The fluorescence values were read at 615 nm and 665 nm by enzyme labeling instrument (PerkinElmer, 74785).
The ratio (665/615) of each well was calculated.
(§1) Formula of inhibition rate (%): […]
Ratiocmpd: Ratio (665/615) value of assay compound.
Ratiopositive: Average ratio (665/615) value of positive control.
Ratiovehicle: Average ratio (665/615) value of negative control.
(§2) The nonlinear regression curve (dose response-variable slope) between the value of inhibition rate (%) and the logarithm of compound concentration was fitted with graphpad prism 8.0, the effect dose curve of compound was drawn, and the IC50 value was calculated.

[2] = target: T1, Ba/F3(EML4-ALK) cells (Homo sapiens, UniProt Q9UM73); test: Assay of activity on Ba/F3(EML4-ALK) cells (CTG, 72 h); type: cell-based; settings: read-out: IC50 (nM) Ba/F3(EML4-ALK)
T1 construct: fused on or other part: Q9HC35 (Echinoderm microtubule-associated protein-like 4)
Protocol: Assay of activity on Ba/F3(EML4-ALK) cells
(1) Ba/F3(EML4-ALK) cells were cultured according to the requirements of ATCC, incubated in an incubator at 37° C. and 5% CO2, and analyzed by index; cells with viability of >90% can be used in the assay, and cells were seeded in a 384-well plate (PerkinElmer, 6007680) with 700 cells/well, 30 μl/well.
(2) A compound stock solution was prepared, and diluted 3× to obtain a compound dilution; 30 nL of the serial dilution was added to a 384-well plate (784075, Greiner) by Echo 550, and cells were incubated in an incubator at 37° C. and 5% CO2 for 72 h.
(3) 30 μL of CTG was added to each well, and the 384-well plate was shaken on a Plate shaker (QILINBEIER, QB-9002); the 384-well plate was incubated in the dark at 37° C. and 5% CO2 for 30 min, and the chemiluminescence value was read by Envision (PerkinElmer, EnVision 2104).
The percent inhibition rate (% inhibition) was calculated by the formula below
LUMcmpd: Luminescence value of assay compound.
LUMpositive: Average LUM value of positive drug at a concentration of 10 μM.
LUM^vehicle: Average LUM value of negative control group without drug treatment.
as §2
Y=Bottom+(Top−Bottom)/(1+10^((LogIC50−X)*HillSlope))
X-axis: logarithm of compound concentration; Y axis: inhibition rate (% inhibition).

[3] = target: ALK (Homo sapiens, UniProt Q9UM73); test: Assay of activity on ALK kinase; type: biochemical; settings: kinase inhibition
Protocol: (§3) Assay of activity on ALK kinase
(§4) (1) A compound stock solution was prepared;
(§5) (2) The compound stock solution was diluted 3× to obtain a compound dilution;
(§6) (5) 5 μl of the 2× kinase working solution was added to the reaction plate, centrifuged at 1,000 rpm for 1 min, and incubated at 25° C. for 15 min;
(§7) (7) 5 μl of the TK-substrate-biotin and ATP (the mixture prepared in step (6)) was added to initiate the reaction;
(§8) (8) The mixture was centrifuged at 1,000 g for 30 s; the plate was sealed, and incubated at 25° C. for 60 min;
(§9) (11) The mixture was centrifuged at 1,000 g for 1 min, and incubated at 25° C. for 60 min;
as §1, §2
(§10) Y=Bottom+(Top−Bottom)/(1+10^((LogIC50−X)*Hill Slope))
(§11) X-axis: logarithm of compound concentration; Y axis: inhibition rate ([…])

[4] = target: Ba/F3(EGFR^L858R/T790M/C797S) cells (Homo sapiens, UniProt P00533, T790M/C797S/L858R, cells depend on it); test: Assay of activity on Ba/F3 cells (CTG, 72 h); type: cell-based; settings: read-out: IC50 (nM) Ba/F3 (EGFR^L858R/T790M/C797S)
In short: (§12)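 Ba/F3 cells dependent on each EGFR triple mutant were exposed to 3-fold compound dilutions for 72 h at 37° C, 5% CO2, with CellTiter-Glo luminescence as the read-out.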

[5] = target: ALK^G1202R (Homo sapiens, UniProt Q9UM73, G1202R); test: Assay of activity on ALK kinase; type: biochemical; settings: kinase inhibition
Protocol: as §3, §4, §5, §6, §7, §8, §9, §1, §2, §10, §11

[6] = target: Ba/F3(EGFR^Del19/T790M/C797S) cells (Homo sapiens, UniProt P00533, DEL746-750/T790M/C797S, cells depend on it); test: Assay of activity on Ba/F3 cells (CTG, 72 h); type: cell-based; settings: read-out: IC50 (nM) Ba/F3 (EGFR^Del19/T790M/C797S)
In short: as §12

ALK^G1202R, sequence (Q9UM73 19-1620 G1202R): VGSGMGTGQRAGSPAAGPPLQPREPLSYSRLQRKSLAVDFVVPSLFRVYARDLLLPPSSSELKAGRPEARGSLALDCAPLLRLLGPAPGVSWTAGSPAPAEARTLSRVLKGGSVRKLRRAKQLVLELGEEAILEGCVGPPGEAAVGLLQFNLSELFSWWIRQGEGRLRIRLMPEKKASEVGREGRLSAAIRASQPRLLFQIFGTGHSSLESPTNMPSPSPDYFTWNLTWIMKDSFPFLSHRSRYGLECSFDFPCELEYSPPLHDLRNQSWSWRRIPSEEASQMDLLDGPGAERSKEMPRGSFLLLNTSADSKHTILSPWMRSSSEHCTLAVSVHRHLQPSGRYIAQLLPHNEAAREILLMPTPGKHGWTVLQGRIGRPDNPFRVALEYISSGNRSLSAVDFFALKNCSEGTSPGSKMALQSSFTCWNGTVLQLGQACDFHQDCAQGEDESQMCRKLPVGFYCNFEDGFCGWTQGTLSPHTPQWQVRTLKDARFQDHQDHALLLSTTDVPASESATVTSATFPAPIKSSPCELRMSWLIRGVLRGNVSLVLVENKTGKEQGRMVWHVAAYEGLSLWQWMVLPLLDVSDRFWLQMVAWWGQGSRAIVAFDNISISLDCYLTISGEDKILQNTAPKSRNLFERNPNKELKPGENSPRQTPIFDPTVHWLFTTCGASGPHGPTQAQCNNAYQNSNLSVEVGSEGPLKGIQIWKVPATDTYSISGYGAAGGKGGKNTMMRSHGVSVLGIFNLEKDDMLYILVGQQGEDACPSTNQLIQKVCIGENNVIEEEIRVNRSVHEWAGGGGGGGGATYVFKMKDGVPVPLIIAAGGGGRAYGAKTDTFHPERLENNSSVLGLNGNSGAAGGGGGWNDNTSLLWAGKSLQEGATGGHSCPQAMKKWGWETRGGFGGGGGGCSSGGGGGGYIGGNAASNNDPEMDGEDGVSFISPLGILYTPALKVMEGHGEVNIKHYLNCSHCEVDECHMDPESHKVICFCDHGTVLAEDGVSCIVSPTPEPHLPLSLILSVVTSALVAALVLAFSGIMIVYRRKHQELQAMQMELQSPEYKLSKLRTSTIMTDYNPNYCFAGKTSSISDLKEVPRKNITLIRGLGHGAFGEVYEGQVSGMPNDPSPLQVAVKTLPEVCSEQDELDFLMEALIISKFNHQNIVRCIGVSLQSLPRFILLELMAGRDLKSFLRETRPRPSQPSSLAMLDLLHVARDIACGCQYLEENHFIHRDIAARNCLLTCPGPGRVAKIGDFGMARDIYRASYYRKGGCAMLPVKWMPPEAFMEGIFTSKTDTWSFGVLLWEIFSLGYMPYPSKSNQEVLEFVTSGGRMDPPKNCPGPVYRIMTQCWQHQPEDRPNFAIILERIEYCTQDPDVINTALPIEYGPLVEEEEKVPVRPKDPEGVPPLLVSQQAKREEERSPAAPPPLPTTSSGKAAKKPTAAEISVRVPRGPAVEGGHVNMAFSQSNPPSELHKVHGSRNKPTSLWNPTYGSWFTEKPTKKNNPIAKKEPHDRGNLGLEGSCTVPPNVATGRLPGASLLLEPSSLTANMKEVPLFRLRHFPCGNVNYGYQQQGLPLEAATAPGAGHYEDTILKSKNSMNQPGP
ALK, sequence (Q9UM73 19-1620): as the sequence (Q9UM73 19-1620 G1202R) above, with R1184G counted along it
Ba/F3(EGFR^L858R/T790M/C797S) cells, sequence (P00533 whole entry T790M/C797S/L858R): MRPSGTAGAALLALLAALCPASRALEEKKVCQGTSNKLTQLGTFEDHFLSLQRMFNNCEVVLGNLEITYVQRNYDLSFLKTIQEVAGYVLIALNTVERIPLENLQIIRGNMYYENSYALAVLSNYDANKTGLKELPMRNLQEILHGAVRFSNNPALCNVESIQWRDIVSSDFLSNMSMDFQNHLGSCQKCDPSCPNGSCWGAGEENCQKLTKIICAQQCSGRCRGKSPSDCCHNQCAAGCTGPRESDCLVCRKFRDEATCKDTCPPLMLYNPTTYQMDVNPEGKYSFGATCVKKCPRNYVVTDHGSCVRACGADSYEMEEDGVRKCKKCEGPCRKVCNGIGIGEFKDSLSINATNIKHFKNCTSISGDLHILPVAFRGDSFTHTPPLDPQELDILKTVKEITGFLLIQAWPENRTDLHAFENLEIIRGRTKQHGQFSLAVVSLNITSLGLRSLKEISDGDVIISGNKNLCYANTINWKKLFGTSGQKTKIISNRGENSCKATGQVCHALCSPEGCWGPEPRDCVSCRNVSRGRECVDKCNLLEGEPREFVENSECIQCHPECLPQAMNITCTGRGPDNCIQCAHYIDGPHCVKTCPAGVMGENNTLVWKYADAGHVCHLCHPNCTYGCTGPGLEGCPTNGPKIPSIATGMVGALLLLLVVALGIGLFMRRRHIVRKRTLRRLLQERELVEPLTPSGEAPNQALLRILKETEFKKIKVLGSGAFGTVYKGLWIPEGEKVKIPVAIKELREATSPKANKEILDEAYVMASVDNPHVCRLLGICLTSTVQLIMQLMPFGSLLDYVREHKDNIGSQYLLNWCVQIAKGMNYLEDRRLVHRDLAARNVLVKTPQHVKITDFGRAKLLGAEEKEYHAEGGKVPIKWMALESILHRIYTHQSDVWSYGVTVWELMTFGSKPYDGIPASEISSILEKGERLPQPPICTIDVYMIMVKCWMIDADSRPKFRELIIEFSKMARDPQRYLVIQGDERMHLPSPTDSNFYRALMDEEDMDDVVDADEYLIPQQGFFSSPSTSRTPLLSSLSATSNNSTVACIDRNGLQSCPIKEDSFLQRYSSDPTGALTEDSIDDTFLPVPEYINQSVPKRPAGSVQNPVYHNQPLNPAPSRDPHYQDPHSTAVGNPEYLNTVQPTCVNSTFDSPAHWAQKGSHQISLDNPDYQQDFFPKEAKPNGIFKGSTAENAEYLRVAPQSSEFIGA
EGFR^L858R/T790M/C797S, sequence (P00533 25-1210 T790M/C797S/L858R): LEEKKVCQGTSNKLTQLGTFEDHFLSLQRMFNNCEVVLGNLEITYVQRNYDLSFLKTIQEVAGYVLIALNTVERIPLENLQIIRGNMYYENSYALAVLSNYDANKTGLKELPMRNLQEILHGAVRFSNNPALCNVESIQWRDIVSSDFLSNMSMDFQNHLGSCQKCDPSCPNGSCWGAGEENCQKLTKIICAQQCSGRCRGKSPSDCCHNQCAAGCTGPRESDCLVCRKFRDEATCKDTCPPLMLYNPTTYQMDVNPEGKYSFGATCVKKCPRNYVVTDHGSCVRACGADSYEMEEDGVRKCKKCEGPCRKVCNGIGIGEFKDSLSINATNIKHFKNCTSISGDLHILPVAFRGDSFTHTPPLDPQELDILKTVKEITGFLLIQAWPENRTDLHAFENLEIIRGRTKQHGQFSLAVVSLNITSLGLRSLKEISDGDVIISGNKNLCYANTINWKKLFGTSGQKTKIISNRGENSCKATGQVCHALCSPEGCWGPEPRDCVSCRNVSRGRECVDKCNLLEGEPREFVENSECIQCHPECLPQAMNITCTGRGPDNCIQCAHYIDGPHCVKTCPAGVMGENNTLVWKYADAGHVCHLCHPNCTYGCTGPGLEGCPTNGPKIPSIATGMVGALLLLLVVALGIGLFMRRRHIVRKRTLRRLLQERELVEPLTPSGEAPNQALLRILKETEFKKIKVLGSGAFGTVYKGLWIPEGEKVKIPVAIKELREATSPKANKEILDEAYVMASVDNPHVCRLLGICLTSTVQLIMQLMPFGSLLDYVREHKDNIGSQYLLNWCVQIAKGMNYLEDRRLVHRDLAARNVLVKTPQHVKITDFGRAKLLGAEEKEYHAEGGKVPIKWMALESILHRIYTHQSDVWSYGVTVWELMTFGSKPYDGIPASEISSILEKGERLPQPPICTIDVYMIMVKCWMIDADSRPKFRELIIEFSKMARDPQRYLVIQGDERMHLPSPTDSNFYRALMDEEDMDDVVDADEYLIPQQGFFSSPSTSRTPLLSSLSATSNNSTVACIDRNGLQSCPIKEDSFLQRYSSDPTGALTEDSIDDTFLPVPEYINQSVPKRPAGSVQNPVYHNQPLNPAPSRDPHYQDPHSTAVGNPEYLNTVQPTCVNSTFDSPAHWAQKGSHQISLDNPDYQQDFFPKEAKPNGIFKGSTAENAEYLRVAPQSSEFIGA

IC50 [1]: 201 to 300 nM | IC50 [5]: > 300 nM | IC50 [3]: 1 to 100 nM
Compound: COc1cc(N2CCC(N3CCN(C(=O)CC4(CSCC(=O)Nc5cccc6c5C(=O)N(C5CCC(=O)NC5=O)C6=O)CC4)CC3)CC2)ccc1Nc1ncc(Cl)c(Nc2ccccc2P(C)(C)=O)n1 (stereo not drawn) [Compound C103, 2-(((1-(2-(4-(1-(4-((5-chloro-4-((2-(dimethylphosphoryl)phenyl)amino)pyrimidin-2-yl)amino)-3-methoxyphenyl)piperidin-4-yl)piperazin-1-yl)-2-oxoethyl)cyclopropyl)methyl)thio)—N-(2-(2,6-dioxopiperidin-3-yl)-1,3-dioxoisoindolin-4-yl)acetamide]

IC50 [1]: 1 to 100 nM | IC50 [5]: 201 to 300 nM | IC50 [3]: 1 to 100 nM | GI50 [4]: > 300 nM
Compound: COc1cc(N2CCC(N3CCN(CC4(COc5cccc6c5C(=O)N(C5CCC(=O)NC5=O)C6=O)CC4)CC3)CC2)ccc1Nc1ncc(Cl)c(Nc2ccccc2P(C)(C)=O)n1 (stereo not drawn) [Compound C106, 4-((1-((4-(1-(4-((5-chloro-4-((2-(dimethylphosphoryl)phenyl)amino)pyrimidin-2-yl)amino)-3-methoxyphenyl)piperidin-4-yl)piperazin-1-yl)methyl)cyclopropyl)methoxy)-2-(2,6-dioxopiperidin-3-yl)isoindoline-1,3-dione]

IC50 [1]: 1 to 100 nM | IC50 [5]: 101 to 200 nM | IC50 [3]: 1 to 100 nM | GI50 [4]: 101 to 200 nM
Compound: COc1cc(N2CCC(N3CCN(CC(=O)OCC4(COc5cccc6c5C(=O)N(C5CCC(=O)NC5=O)C6=O)CC4)CC3)CC2)ccc1Nc1ncc(Cl)c(Nc2ccccc2P(C)(C)=O)n1 (stereo not drawn) [Compound C107, 2-(4-(1-(4-((5-chloro-4-((2-(dimethylphosphoryl)phenyl)amino)pyrimidin-2-yl)amino)-3-methoxyphenyl)piperidin-4-yl)piperazin-1-yl)acetate (1-(((2-(2,6-dioxopiperidin-3-yl)-1,3-dioxoisoindolin-4-yl)oxy)methyl)cyclopropyl)methyl ester]

IC50 [1]: 1 to 100 nM | IC50 [5]: 1 to 100 nM | IC50 [3]: 1 to 100 nM | GI50 [4]: > 300 nM
Compound: COc1cc(N2CCC(N3CCN(CC(=O)N4CCC[C@H]4COc4cccc5c4C(=O)N(C4CCC(=O)NC4=O)C5=O)CC3)CC2)ccc1Nc1ncc(Cl)c(Nc2ccccc2P(C)(C)=O)n1 (stereo partly drawn) [Compound C109, 4-(((S)-1-(2-(4-(1-(4-((5-chloro-4-((2-(dimethylphosphoryl)phenyl)amino)pyrimidin-2-yl)amino)-3-methoxyphenyl)piperidin-4-yl)piperazin-1-yl)acetyl)pyrrolidin-2-yl)methoxy)-2-(2,6-dioxopiperidin-3-yl)isoindoline-1,3-dione]

GI50 [2]: 1 to 100 nM | IC50 [5]: 201 to 300 nM | IC50 [3]: 1 to 100 nM | GI50 [6]: 1 to 100 nM
Compound: COc1cc(N2CCC(N3CCN(CCCCCC#Cc4ccc5c(c4)CN(C4CCC(=O)NC4=O)C5=O)CC3)CC2)ccc1Nc1ncc(Cl)c(Nc2ccccc2P(C)(C)=O)n1 (stereo not drawn) [Compound C190, 3-(5-(7-(4-(1-(4-((5-chloro-4-((2-(dimethylphosphoryl)phenyl)amino)pyrimidin-2-yl)amino)-3-methoxyphenyl)piperidin-4-yl)piperazin-1-yl)hept-1-yn-1-yl)-1-oxoisoindolin-2-yl)piperidine-2,6-dione]

The remaining lines, values behind:

Compound: COc1cc(N2CCC(N3CCN(CCCCCC#Cc4cccc5c4CN(C4CCC(=O)NC4=O)C5=O)CC3)CC2)ccc1Nc1ncc(Cl)c(Nc2ccccc2P(C)(C)=O)n1 (stereo not drawn) [Compound C1, 3-(4-(7-(4-(1-(4-((5-chloro-4-((2-(dimethylphosphoryl)phenyl)amino)pyrimidin-2-yl)amino)-3-methoxyphenyl)piperidin-4-yl)piperazin-1-yl)hept-1-yn-1-yl)-1-oxoisoindolin-2-yl)piperidine-2,6-dione]
IC50 [1]: 1 to 100 nM | GI50 [2]: 1 to 100 nM | IC50 [3]: 1 to 100 nM | GI50 [4]: 1 to 100 nM

Compound: COc1cc(N2CCC(N3CCN(CC(=O)N4CCC(CCOc5cccc6c5C(=O)N(C5CCC(=O)NC5=O)C6=O)CC4)CC3)CC2)ccc1Nc1ncc(Cl)c(Nc2ccccc2P(C)(C)=O)n1 (stereo not drawn) [Compound C4, 4-(2-(1-(2-(4-(1-(4-((5-chloro-4-((2-(dimethylphosphoryl)phenyl)amino)pyrimidin-2-yl)amino)-3-methoxyphenyl)piperidin-4-yl)piperazin-1-yl)acetyl)piperidin-4-yl)ethoxy)-2-(2,6-dioxopiperidin-3-yl)isoindoline-1,3-dione]
IC50 [1]: 101 to 200 nM | IC50 [5]: 101 to 200 nM | IC50 [3]: 1 to 100 nM | GI50 [4]: 101 to 200 nM

Compound: COc1cc(N2CCC(N3CCN(C(=O)C(C)(C)COC(=O)COc4cccc5c4C(=O)N(C4CCC(=O)NC4=O)C5=O)CC3)CC2)ccc1Nc1ncc(Cl)c(Nc2ccccc2P(C)(C)=O)n1 (stereo not drawn) [Compound C6, 2-((2-(2,6-dioxopiperidin-3-yl)-1,3-dioxoisoindolin-4-yl)oxy)acetic acid 3-(4-(1-(4-((5-Chloro-4-((2-(dimethylphosphoryl)phenyl)amino)pyrimidin-2-yl)amino)-3-methoxyphenyl)piperidin-4-yl)piperazin-1-yl)-2,2-dimethyl-3-oxopropyl ester]
IC50 [1]: 101 to 200 nM | IC50 [5]: 1 to 100 nM | IC50 [3]: 1 to 100 nM | GI50 [4]: 201 to 300 nM

Compound: COc1cc(N2CCC(N3CCN(CC(=O)N4CC(Oc5cccc6c5C(=O)N(C5CCC(=O)NC5=O)C6=O)C4)CC3)CC2)ccc1Nc1ncc(Cl)c(Nc2ccccc2P(C)(C)=O)n1 (stereo not drawn) [Compound C93, 4-((1-(2-(4-(1-(4-((5-chloro-4-((2-(dimethylphosphoryl)phenyl)amino)pyrimidin-2-yl)amino)-3-methoxyphenyl)piperidin-4-yl)piperazin-1-yl)acetyl)azetidin-3-yl)oxy)-2-(2,6-dioxopiperidin-3-yl)isoindoline-1,3-dione]
IC50 [1]: 1 to 100 nM | IC50 [5]: 1 to 100 nM | IC50 [3]: 1 to 100 nM | GI50 [4]: > 300 nM

Compound: COc1cc(N2CCC(N3CCN(CC(=O)N4CC(COc5cccc6c5C(=O)N(C5CCC(=O)NC5=O)C6=O)C4)CC3)CC2)ccc1Nc1ncc(Cl)c(Nc2ccccc2P(C)(C)=O)n1 (stereo not drawn) [Compound C94, 4-((1-(2-(4-(1-(4-((5-chloro-4-((2-(dimethylphosphoryl)phenyl)amino)pyrimidin-2-yl)amino)-3-methoxyphenyl)piperidin-4-yl)piperazin-1-yl)acetyl)azetidin-3-yl)methoxy)-2-(2,6-dioxopiperidin-3-yl)isoindoline-1,3-dione]
IC50 [1]: 1 to 100 nM | IC50 [5]: 1 to 100 nM | IC50 [3]: 1 to 100 nM | GI50 [4]: > 300 nM
